Data: patent publication US8952157B2, “Apoptosis-inducing agents for the treatment of cancer and immune and autoimmune diseases” (AbbVie Inc., priority 2008, dated 2015)
Like-named read-outs stand apart in the source and are kept apart here.

Biological target: GST-Bcl-2 (Homo sapiens (Human), UniProt P10415)
Experiment: Time Resolved-Fluorescence Resonance Energy Transfer (TR-FRET) Bcl-2 binding assay
Summary of the method: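 Competition TR-FRET: GST-Bcl-2 with fluorescent Bak peptide probe and Tb-anti-GST antibody, compounds serially diluted from 50 μM (2× start, 10% DMSO).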

[1] = GST-Bcl-2 1 nM, F-Bak peptide probe 100 nM, Tb-anti-GST antibody 1 nM, Ki by Wang's equation

Sequence of GST-Bcl-2 (P10415 whole entry): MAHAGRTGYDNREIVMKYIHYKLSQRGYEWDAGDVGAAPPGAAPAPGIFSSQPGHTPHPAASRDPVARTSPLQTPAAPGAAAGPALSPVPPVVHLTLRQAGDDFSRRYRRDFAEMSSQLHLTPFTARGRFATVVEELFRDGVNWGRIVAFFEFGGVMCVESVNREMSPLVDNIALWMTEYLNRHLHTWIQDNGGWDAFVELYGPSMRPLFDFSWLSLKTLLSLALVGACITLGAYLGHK

Row | Structure (SMILES) | Ki [1] [nM] | Ki [nM]
1 | CC1(C)CCC(CN2CCN(c3ccc(C(=O)NS(=O)(=O)c4ccc(NC5CCN(CCF)CC5)c([N+](=O)[O-])c4)c(Oc4cccc(F)c4F)c3)CC2)=C(c2ccc(Cl)cc2)C1 [Example 140, 4-(4-{[2-(4-chlorophenyl)-4,4-dimethylcyclohex-1-en-1-yl]methyl}piperazin-1-yl)-2-(2,3-difluorophenoxy)-N-[(4-{[1-(2-fluoroethyl)piperidin-4-yl]amino}-3-nitrophenyl)sulfonyl]benzamide] | 0.223 | 
2 | O=C(NS(=O)(=O)c1ccc(NCC2CCOCC2)c([N+](=O)[O-])c1)c1ccc(N2CCN(Cc3ccccc3-c3ccc(Cl)cc3)CC2)cc1Oc1ccccc1Cl [Example 5, 4-(4-((4′-chloro-1,1′-biphenyl-2-yl)methyl)piperazin-1-yl)-2-(2-chlorophenoxy)-N-((3-nitro-4-((tetrahydro-2H-pyran-4-ylmethyl)amino)phenyl)sulfonyl)benzamide] | 0.746 | 
3 | N#Cc1ccc(Oc2cc(N3CCN(Cc4ccccc4-c4ccc(Cl)cc4)CC3)ccc2C(=O)NS(=O)(=O)c2ccc(NCC3CCOCC3)c([N+](=O)[O-])c2)cc1 [Example 72, 4-(4-((4′-chloro-1,1′-biphenyl-2-yl)methyl)piperazin-1-yl)-2-(4-cyanophenoxy)-N-((3-nitro-4-((tetrahydro-2H-pyran-4-ylmethyl)amino)phenyl)sulfonyl)benzamide] | 31.7 | 
4 | CNC(=O)c1cccc(Oc2cc(N3CCN(Cc4ccccc4-c4ccc(Cl)cc4)CC3)ccc2C(=O)NS(=O)(=O)c2ccc(NCCCN3CCOCC3)c([N+](=O)[O-])c2)c1 [Example 103, 4-(4-((4′-chlorobiphenyl-2-yl)methyl)piperazin-1-yl)-2-(3-(methylcarbamoyl)phenoxy)-N-(4-(3-morpholinopropylamino)-3-nitrophenylsulfonyl)benzamide] | 6.75 | 
5 | CN1CCN(Nc2ccc(S(=O)(=O)NC(=O)c3ccc(N4CCN(CC5=C(c6ccc(Cl)cc6)CC(C)(C)OC5)CC4)cc3Oc3cc4cc[nH]c4cc3F)cc2[N+](=O)[O-])CC1 [Example 316, 4-(4-{[4-(4-chlorophenyl)-6,6-dimethyl-5,6-dihydro-2H-pyran-3-yl]methyl}piperazin-1-yl)-2-[(6-fluoro-1H-indol-5-yl)oxy]-N-({4-[(4-methylpiperazin-1-yl)amino]-3-nitrophenyl}sulfonyl)benzamide] | 0.058 | 
6 | CC1(C)CCC(CN2CCN(c3ccc(C(=O)NS(=O)(=O)c4ccc(NC5CCN(CCO)CC5)c([N+](=O)[O-])c4)c(Oc4cccc(Cl)c4)c3)CC2)=C(c2ccc(Cl)cc2)C1 [Example 162, 2-(3-chlorophenoxy)-4-(4-{[2-(4-chlorophenyl)-4,4-dimethylcyclohex-1-en-1-yl]methyl}piperazin-1-yl)-N-[(4-{[1-(2-hydroxyethyl)piperidin-4-yl]amino}-3-nitrophenyl)sulfonyl]benzamide] | 0.048 | 
7 | CC1(C)CCC(CN2CCN(c3ccc(C(=O)NS(=O)(=O)c4ccc(O[C@H]5CC[C@H](N6CCOCC6)CC5)c([N+](=O)[O-])c4)c(Oc4cc5cc[nH]c5cc4F)c3)CC2)=C(c2ccc(Cl)cc2)C1 [Example 311, Trans-4-(4-{[2-(4-chlorophenyl)-4,4-dimethylcyclohex-1-en-1-yl]methyl}piperazin-1-yl)-2-[(6-fluoro-1H-indol-5-yl)oxy]-N-({4-[(4-morpholin-4-ylcyclohexyl)oxy]-3-nitrophenyl}sulfonyl)benzamide] |  | 0.185
8 | CN(C)CCCNc1ccc(S(=O)(=O)NC(=O)c2ccc(N3CCN(Cc4ccccc4-c4ccc(Cl)cc4)CC3)cc2Oc2cccc3c2ccn3C)cc1[N+](=O)[O-] [Example 16, 4-(4-((4′-chloro-1,1′-biphenyl-2-yl)methyl)piperazin-1-yl)-N-((4-((3-(dimethylamino)propyl)amino)-3-nitrophenyl)sulfonyl)-2-((1-methyl-1H-indol-4-yl)oxy)benzamide] | 3.04 | 
9 | CC1(C)CCC(CN2CCN(c3ccc(C(=O)NS(=O)(=O)c4ccc(N[C@@H]5CCN(C(CF)CF)C5)c([N+](=O)[O-])c4)c(Oc4cnc(N)c(Cl)c4)c3)CC2)=C(c2ccc(Cl)cc2)C1 [Example 394, 2-[(6-amino-5-chloropyridin-3-yl)oxy]-4-(4-{[2-(4-chlorophenyl)-4,4-dimethylcyclohex-1-en-1-yl]methyl}piperazin-1-yl)-N-{[4-({(3R)-1-[2-fluoro-1-(fluoromethyl)ethyl]pyrrolidin-3-yl}amino)-3-nitrophenyl]sulfonyl}benzamide] | 0.018 | 
10 | CC(c1ccccc1-c1ccc(Cl)cc1)N1CCN(c2ccc(C(=O)NS(=O)(=O)c3ccc(NC4CCN(C)CC4)c([N+](=O)[O-])c3)c(Oc3ccccc3Cl)c2)CC1 (centres unmarked) [Example 206, 4-{4-[1-(4′-chloro-1,1′-biphenyl-2-yl)ethyl]piperazin-1-yl}-2-(2-chlorophenoxy)-N-({4-[(1-methylpiperidin-4-yl)amino]-3-nitrophenyl}sulfonyl)benzamide] | 0.037 | 
11 | O=C(NS(=O)(=O)c1ccc(NCC2CCOCC2)c([N+](=O)[O-])c1)c1ccc(N2CCN(Cc3ccccc3-c3ccc(Cl)cc3)CC2)cc1Oc1cccc(OCc2ccccc2)c1 [Example 71, 2-(3-(benzyloxy)phenoxy)-4-(4-((4′-chloro-1,1′-biphenyl-2-yl)methyl)piperazin-1-yl)-N-((3-nitro-4-((tetrahydro-2H-pyran-4-ylmethyl)amino)phenyl)sulfonyl)benzamide] | 31.6 | 
12 | CC1(C)CCC(CN2CCN(c3ccc(C(=O)NS(=O)(=O)c4ccc(NC5CCN(C6CCOCC6)CC5)c([N+](=O)[O-])c4)c(Oc4cc5cc[nH]c5cc4C(F)(F)F)c3)CC2)=C(c2ccc(Cl)cc2)C1 [Example 218, 4-(4-{[2-(4-chlorophenyl)-4,4-dimethylcyclohex-1-en-1-yl]methyl}piperazin-1-yl)-N-({3-nitro-4-[(1-tetrahydro-2H-pyran-4-ylpiperidin-4-yl)amino]phenyl}sulfonyl)-2-{[6-(trifluoromethyl)-1H-indol-5-yl]oxy}benzamide] | 0.175 | 
13 | CCNCc1cccc(Oc2cc(N3CCN(Cc4ccccc4-c4ccc(Cl)cc4)CC3)ccc2C(=O)NS(=O)(=O)c2ccc(NCC3CCOCC3)c([N+](=O)[O-])c2)c1 [Example 81, 4-(4-((4′-chloro-1,1′-biphenyl-2-yl)methyl)piperazin-1-yl)-2-(3-((ethylamino)methyl)phenoxy)-N-((3-nitro-4-((tetrahydro-2H-pyran-4-ylmethyl)amino)phenyl)sulfonyl)benzamide] | 31 | 
14 | CN1CCC(Nc2ccc(S(=O)(=O)NC(=O)c3ccc(N4CCN(CC5=C(c6ccc(Cl)cc6)CC(C)(C)CC5)CC4)cc3Oc3cc4cc[nH]c4cc3C(F)(F)F)cc2[N+](=O)[O-])CC1 [Example 217, 4-(4-{[2-(4-chlorophenyl)-4,4-dimethylcyclohex-1-en-1-yl]methyl)piperazin-1-yl)-N-((4-[(1-methylpiperidin-4-yl)amino]-3-nitrophenyl}sulfonyl)-2-{[6-(trifluoromethyl)-1H-indol-5-yl]oxy}benzamide] |  | 0.174
15 | CC1(C)CC(c2ccc(Cl)cc2)=C(CN2CCN(c3ccc(C(=O)NS(=O)(=O)c4ccc(NCC5CCOCC5)c([N+](=O)[O-])c4)c(Oc4cnc(N)c(Cl)c4)c3)CC2)CO1 [Example 387, 2-[(6-amino-5-chloropyridin-3-yl)oxy]-4-(4-{[4-(4-chlorophenyl)-6,6-dimethyl-5,6-dihydro-2H-pyran-3-yl]methyl}piperazin-1-yl)-N-({3-nitro-4-[(tetrahydro-2H-pyran-4-ylmethyl)amino]phenyl}sulfonyl)benzamide] | < 0.01 | 
16 | CN1CCC(Nc2ccc(S(=O)(=O)NC(=O)c3ccc(N4CCN(CC5=C(c6ccc(Cl)cc6)CC(C)(C)CC5)CC4)cc3Oc3c(F)cccc3Cl)cc2[N+](=O)[O-])CC1 [Example 151, 2-(2-chloro-6-fluorophenoxy)-4-(4-{[2-(4-chlorophenyl)-4,4-dimethylcyclohex-1-en-1-yl]methyl}piperazin-1-yl)-N-({4-[(1-methylpiperidin-4-yl)amino]-3-nitrophenyl}sulfonyl)benzamide] | 6.94 | 
17 | CC1(C)CCC(CN2CCN(c3ccc(C(=O)NS(=O)(=O)c4cnc(NC5CCN(C6CCOCC6)CC5)c(Br)c4)c(Oc4cc5cc[nH]c5cc4F)c3)CC2)=C(c2ccc(Cl)cc2)C1 [Example 312, N-({5-bromo-6-[(1-tetrahydro-2H-pyran-4-ylpiperidin-4-yl)amino]pyridin-3-yl}sulfonyl)-4-(4-{[2-(4-chlorophenyl)-4,4-dimethylcyclohex-1-en-1-yl]methyl}piperazin-1-yl)-2-[(6-fluoro-1H-indol-5-yl)oxy]benzamide] | 0.531 | 
18 | CC1(C)CCC(CN2CCN(c3ccc(C(=O)NS(=O)(=O)c4ccc(N[C@H]5CC[C@H](N6CCOCC6)CC5)c([N+](=O)[O-])c4)c(Oc4cc5cc[nH]c5c(F)c4F)c3)CC2)=C(c2ccc(Cl)cc2)C1 [Example 235, Trans-4-(4-{[2-(4-chlorophenyl)-4,4-dimethylcyclohex-1-en-1-yl]methyl}piperazin-1-yl)-2-[(6,7-difluoro-1H-indol-5-yl)oxy]-N-({4-[(4-morpholin-4-ylcyclohexyl)amino]-3-nitrophenyl}sulfonyl)benzamide] |  | 0.039
19 | CN(C)C(=O)c1ccccc1Oc1cc(N2CCN(Cc3ccccc3-c3ccc(Cl)cc3)CC2)ccc1C(=O)NS(=O)(=O)c1ccc(NCC2CCOCC2)c([N+](=O)[O-])c1 [Example 30, 2-(5-(4-((4′-chlorobiphenyl-2-yl)methyl)piperazin-1-yl)-2-(3-nitro-4-((tetrahydro-2H-pyran-4-yl)methylamino)phenylsulfonylcarbamoyl)phenoxy)-N,N-dimethylbenzamide] | 0.071 | 
20 | CC1(C)CCC(CN2CCN(c3ccc(C(=O)NS(=O)(=O)c4ccc(NC5CCN(C6CCOCC6)CC5)c([N+](=O)[O-])c4)c(Oc4ccc(O)cc4Cl)c3)CC2)=C(c2ccc(Cl)cc2)C1 [Example 216, 2-(2-chloro-4-hydroxyphenoxy)-4-(4-{[2-(4-chlorophenyl)-4,4-dimethylcyclohex-1-en-1-yl]methyl}piperazin-1-yl)-N-({3-nitro-4-[(1-tetrahydro-2H-pyran-4-ylpiperidin-4-yl)amino]phenyl}sulfonyl)benzamide] | 0.027 | 
